SMILES strings stand for the structures.

T1 sequence (A0A0H2ZNH9 201-449): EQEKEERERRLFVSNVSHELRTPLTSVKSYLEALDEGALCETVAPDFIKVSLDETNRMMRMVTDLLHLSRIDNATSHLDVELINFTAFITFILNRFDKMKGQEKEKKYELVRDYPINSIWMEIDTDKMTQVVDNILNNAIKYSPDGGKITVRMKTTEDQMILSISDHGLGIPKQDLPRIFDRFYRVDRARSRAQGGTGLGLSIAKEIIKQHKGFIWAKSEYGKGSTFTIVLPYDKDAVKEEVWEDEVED

The experiment concerns the target T1, VicK' (cytoplasmic HisKA and HATPase_c domains of histidine kinase VicK) (Streptococcus pneumoniae, UniProt A0A0H2ZNH9).
T1 construct: gene walK
Kind of experiment: Kinase-Glo luminescent assay of residual ATP (ATPase / autophosphorylation). As to conditions: read-out: IC50 (μM) for VicK' protein. It counts as biochemical. The source says:
Kinase-Glo luminescent assay of residual ATP (ATPase / autophosphorylation) on VicK' (cytoplasmic HisKA and HATPase_c domains of histidine kinase VicK)
Background: Kinase-Glo reads ATP consumption through a luciferase reaction.
With `COc1ccc(-c2ccc(CNCCNC(=O)c3nonc3N)o2)cc1Cl` [compound 2, Compound 2], the IC50 (in general, the concentration that inhibits the measured activity by half) turned out to be 562 µM. `c1ccc2[nH]c(Nc3ccc(-c4ccc(Nc5nc6ccccc6[nH]5)cc4)cc3)nc2c1` [compound 6, Compound 6]: the IC50 came out at 32.6 µM. Regarding `Cn1nnnc1SCCCNCc1ccc(-c2ccc(F)c(Cl)c2)o1` [compound 5, Compound 5], the IC50 was 598 µM. The same measure for `Cn1nnnc1SCCCNCc1ccc(-c2ccccc2F)o1` [compound 4, Compound 4]: more than 1000 µM; for `Nc1nonc1C(=O)NCCNCc1ccc(OCc2cccs2)cc1` [compound 1, Compound 1]: 542 µM; for `COc1ccc(CCNCc2ccc(-c3ccccc3)o2)cc1OC` [compound 3, Compound 3]: 503 µM.

The values are drawn from PMC2713251, “Discovery of novel inhibitors of Streptococcus pneumoniae based on the virtual screening with the homology-modeled structure of histidine kinase (VicK)” (BMC Microbiology, 2009).
